What follows are compounds tested against T1, recombinant human NAMPT (Homo sapiens, UniProt P43490) (assay: HTS / fixed-concentration NAMPT activity screen (fluorometric)). Settings: 20 μM compound; analogues of the 46 non-fluorescent inhibitors.
T1 construct: His tag (N); made in house; host or cells: E. coli BL21-CodonPlus (DE3)-RIL, pET21a+ vector
Assay type: biochemical
Text: Using our previously established high throughput screening (HTS) platform and recombinant human NAMPT[14][15], we performed a HTS on a chemical library containing 30000 small-molecules (Chemdiv, CA, USA). Our HTS targeting NAMPT was developed based on a fluorometric method for NAMPT activity assay by measuring the fluorescence of nicotinamide mononucleotide (NMN) derivative resulting from the NAMPT enzymatic product NMN through simple chemical reactions (Fig. 1A). The 30000 compounds were dissolved with dimethyl sulfoxide (DMSO); most of compounds were soluble at 10 mM stock solution (94.1%), some compounds insoluble at 10 mM were soluble at 2.5 mM stock solution (4.4%), and the remaining compounds insoluble at 2.5 mM (1.5%) were diluted further during HTS experiments (Fig. 1B). To guarantee the quality of screening, S/N ratio, CV and Z’ factors were monitored throughout the screenings, and all three indices met the requirements of HTS (Fig. 1C–E). After a primary screen and a secondary screen of all compounds at 20 μM, 242 compounds were selected as the hits of NAMPT inhibitors (NAMPT activity < 40%), and the hit rate was ~0.8% (Fig. 1F). […] All these 55 compounds were not reported as NAMPT inhibitors previously. Among the 55 compounds, we noted 46 compounds were non-fluorescent and 9 compounds were fluorescent (Fig. 1F). These fluorescent and non-fluorescent compounds were further studied separately.
HTS was performed using our previously reported method. 0.5 μl stock of each compound (1 mM DMSO stock) was transferred to a 96-well PCR plate for screening. In the primary screening, 5 ng NAMPT in 20 μl reaction buffer [0.4 mM phosphoribosylpyrophosphate (PRPP, Sigma), 2 mM ATP, 0.02% BSA, 2 mM DTT, 12 mM MgCl2 and 50 mM Tris-HCl (pH = 7.5)] was added into each well, the plate was incubated at 37 °C for 5 min, then 4.5 μl substrate of NAM was added to initiate the enzyme reaction, resulting in a final concentration of 2% DMSO, 2 μg/ml NAMPT, 0.2 μM NAM and 20 μM compound. After reacting at 37 °C for 15 min, the enzyme reaction was terminated by heating at 95 °C for 1 min and cooling in an ice bath. The product of NMN was detected through the following approach: after adding 10 μl 20% acetophenone in DMSO and 10 μl 2 M KOH into each well, the mixture was vortex-mixed and kept in ice bath for 2 min. Then 45 μl 88% formic acid was added and the mixture was incubated at 37 °C for 10 min. Finally, 85 μl mixtures in each well were transferred into a flat-bottom 96-well black plate (Greiner), and the fluorescence (F) was measured using a Tecan Infinity M200 plate reader (Tecan Group Ltd.) by setting the excitation and emission wavelength to 382 nm and 445 nm respectively. The last row of each 96-well plate includes six wells of background controls and six wells of reference controls. The relative enzyme activity (Activity%) regulated by specific compound was calculated according to equation (1):
F0 was the averaged fluorescence of six background controls, representing zero activity from a simulated enzyme reaction with only NAMPT but no NAM and compound; F100% was the averaged fluorescence of six reference controls, representing 100% activity from intact enzyme reaction without compound perturbation.
Compounds with Activity% less than 40% were considered as inhibitors and subjected to a secondary screen inhibition validation, in which another background control (FC0), a simulated enzyme reaction with NAMPT and compound but no NAM, was introduced to eliminate the direct and/or indirect influence from compound. At this stage, the Activity% was calculated according to equation (2): […]

T1 sequence (P43490 whole entry): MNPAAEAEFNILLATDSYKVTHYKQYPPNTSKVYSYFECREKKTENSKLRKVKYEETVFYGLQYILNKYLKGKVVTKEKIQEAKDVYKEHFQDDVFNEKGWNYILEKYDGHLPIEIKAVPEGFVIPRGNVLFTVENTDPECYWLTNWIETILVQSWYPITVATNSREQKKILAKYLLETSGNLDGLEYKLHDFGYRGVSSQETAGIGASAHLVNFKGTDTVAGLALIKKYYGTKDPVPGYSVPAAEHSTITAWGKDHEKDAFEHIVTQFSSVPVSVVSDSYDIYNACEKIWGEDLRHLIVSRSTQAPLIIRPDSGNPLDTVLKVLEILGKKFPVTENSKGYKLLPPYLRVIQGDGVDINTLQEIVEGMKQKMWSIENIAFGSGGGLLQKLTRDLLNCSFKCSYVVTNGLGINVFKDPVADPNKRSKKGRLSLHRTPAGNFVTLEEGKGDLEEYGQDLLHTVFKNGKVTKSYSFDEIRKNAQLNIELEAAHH

SMILES | NAMPT inhibition activity at 20 μM
Cc1ccccc1CNC(=O)CCCn1nc(C)c2sc3ccccc3c2c1=O [E019-1139] | No (showed no NAMPT inhibition activity at 20 μM (NAMPT activity ≥40%))
Cc1cc(C)c(NC(=O)C(C)n2nc(C)c3sc4ccccc4c3c2=O)c(C)c1 (stereo not shown) [E019-0435] | No (showed no NAMPT inhibition activity at 20 μM (NAMPT activity ≥40%))
COc1ccc(OC)c(CNC(=O)CCCn2c(=O)c3cccn3c3cccnc32)c1 [C799-0387] | No (showed no NAMPT inhibition activity at 20 μM (NAMPT activity ≥40%))
CCCNC(=O)c1ccc(Cn2c(=O)c3cccn3c3cccnc32)cc1 [E524-1613] | No (showed no NAMPT inhibition activity at 20 μM (NAMPT activity ≥40%))
Cc1ccc2c(=O)cc(CSc3nnc(-c4ccccc4)n3C)[nH]c2c1C [G751-0753] | No (showed no NAMPT inhibition activity at 20 μM (NAMPT activity ≥40%))
COc1ccc(Cl)cc1NC(=O)CCCn1c(=O)c2cccn2c2cccnc21 [E524-1372] | No (showed no NAMPT inhibition activity at 20 μM (NAMPT activity ≥40%))
Cc1ccc(NC(=O)CCCn2c(=O)c3cccn3c3cccnc32)c(Cl)c1 [E524-1338] | No (showed no NAMPT inhibition activity at 20 μM (NAMPT activity ≥40%))
O=C(NCc1ccccc1Cl)c1ccc(Cn2c(=O)c3cccn3c3cccnc32)cc1 [E524-1573] | Yes
CC(C)NC(=O)c1ccc(Cn2c(=O)c3cccn3c3cccnc32)cc1 [E524-1612] | No (showed no NAMPT inhibition activity at 20 μM (NAMPT activity ≥40%))
CCC(C)NC(=O)c1ccc(Cn2c(=O)c3cccn3c3cccnc32)cc1 (stereo not shown) [E524-1568] | No (showed no NAMPT inhibition activity at 20 μM (NAMPT activity ≥40%))
COc1ccc(Br)cc1CNC(=O)CCCn1c(=O)c2cccn2c2cccnc21 [E524-1499] | No (showed no NAMPT inhibition activity at 20 μM (NAMPT activity ≥40%))
Cc1cccc(OCc2ccc(-c3nc(C#N)c(NCc4cccnc4)o3)o2)c1 [D301-0252] | No (showed no NAMPT inhibition activity at 20 μM (NAMPT activity ≥40%))
Cc1ccc(Cl)cc1NC(=O)CCCn1c(=O)c2cccn2c2cccnc21 [E524-1295] | No (showed no NAMPT inhibition activity at 20 μM (NAMPT activity ≥40%))
Cc1ccc(OCc2ccc(-c3nc(C#N)c(NCc4cccnc4)o3)o2)cc1 [D301-0100] | No (showed no NAMPT inhibition activity at 20 μM (NAMPT activity ≥40%))
COc1ccc(CNC(=O)Cn2c(=O)c3cccn3c3cccnc32)cc1 [E524-0113] | No (showed no NAMPT inhibition activity at 20 μM (NAMPT activity ≥40%))
COc1cc(OC)c(NC(=O)CCCn2nc(C)c3sc4ccccc4c3c2=O)cc1Cl [E019-0951] | No (showed no NAMPT inhibition activity at 20 μM (NAMPT activity ≥40%))
COc1ccc(CCNC(=O)c2ccc(Cn3c(=O)c4cccn4c4cccnc43)cc2)cc1OC [E524-1586] | No (showed no NAMPT inhibition activity at 20 μM (NAMPT activity ≥40%))
Cc1cn2c(=O)cc(COC(=O)c3cccc(NC(=O)C(C)Oc4ccccc4)c3)nc2s1 (stereo not shown) [G357-2118] | No (showed no NAMPT inhibition activity at 20 μM (NAMPT activity ≥40%))
CCOCCCNC(=O)c1ccc(Cn2c(=O)c3cccn3c3cccnc32)cc1 [E524-1662] | No (showed no NAMPT inhibition activity at 20 μM (NAMPT activity ≥40%))
COc1ccc(CNC(=O)c2ccc(Cn3c(=O)c4cccn4c4cccnc43)cc2)c(OC)c1 [E524-1754] | No (showed no NAMPT inhibition activity at 20 μM (NAMPT activity ≥40%))

SMILES | NAMPT inhibition activity at 20 μM
Cc1ccc2onc(CNC(=O)Nc3ccccc3C#N)c2c1 [E569-0217] | No (showed no NAMPT inhibition activity at 20 μM (NAMPT activity ≥40%))
O=C(NCc1ccc(Cl)cc1)NCc1noc2ccccc12 [E567-0228] | No (showed no NAMPT inhibition activity at 20 μM (NAMPT activity ≥40%))
O=C(COc1ccc(F)cc1)Nc1ccccc1C(=O)OCc1cc(=O)n2ccsc2n1 [G357-1695] | No (showed no NAMPT inhibition activity at 20 μM (NAMPT activity ≥40%))
CCOc1ccccc1NC(=O)NCc1noc2ccc(C)cc12 [E569-0079] | No (showed no NAMPT inhibition activity at 20 μM (NAMPT activity ≥40%))
CCOc1ccc(CCNC(=O)c2ccc(Cn3c(=O)c4cccn4c4cccnc43)cc2)cc1 [E524-1767] | No (showed no NAMPT inhibition activity at 20 μM (NAMPT activity ≥40%))
CN(C)CCNC(=O)c1ccc(Cn2c(=O)c3cccn3c3cccnc32)cc1 [E524-1589] | No (showed no NAMPT inhibition activity at 20 μM (NAMPT activity ≥40%))
COc1ccc(OC)c(CCNC(=O)CCCn2c(=O)c3cccn3c3cccnc32)c1 [E524-1470] | No (showed no NAMPT inhibition activity at 20 μM (NAMPT activity ≥40%))
CC(=O)c1cccc(NC(=O)Cc2noc3ccccc23)c1 [E207-0513] | No (showed no NAMPT inhibition activity at 20 μM (NAMPT activity ≥40%))
COc1ccc(OC)c(CNC(=O)NCc2noc3ccc(C)cc23)c1 [E569-0193] | No (showed no NAMPT inhibition activity at 20 μM (NAMPT activity ≥40%))
COc1ccc(Cl)cc1NC(=O)NCc1noc2ccccc12 [E567-0019] | No (showed no NAMPT inhibition activity at 20 μM (NAMPT activity ≥40%))
CCOc1ccc(CCNC(=O)CCCn2c(=O)c3cccn3c3cccnc32)cc1 [E524-1469] | No (showed no NAMPT inhibition activity at 20 μM (NAMPT activity ≥40%))
COc1cccc(CNC(=O)CCCn2c(=O)c3cccn3c3cccnc32)c1OC [E524-1489] | No (showed no NAMPT inhibition activity at 20 μM (NAMPT activity ≥40%))
Cc1c(Cl)cccc1NC(=O)Cn1nc(C)c2sc3ccccc3c2c1=O [E019-0120] | No (showed no NAMPT inhibition activity at 20 μM (NAMPT activity ≥40%))
Cc1ccccc1OCc1ccc(-c2nc(C#N)c(NCc3cccnc3)o2)o1 [D301-0303] | No (showed no NAMPT inhibition activity at 20 μM (NAMPT activity ≥40%))
Cc1nn(CCCC(=O)Nc2ccccc2C(F)(F)F)c(=O)c2c1sc1ccccc12 [E019-0923] | No (showed no NAMPT inhibition activity at 20 μM (NAMPT activity ≥40%))
CN(C)c1ccc(CNC(=O)c2ccc(Cn3c(=O)c4cccn4c4cccnc43)cc2)cc1 [E524-1758] | No (showed no NAMPT inhibition activity at 20 μM (NAMPT activity ≥40%))
CC(C)OCCCNC(=O)c1ccc(Cn2c(=O)c3cccn3c3cccnc32)cc1 [E524-1673] | No (showed no NAMPT inhibition activity at 20 μM (NAMPT activity ≥40%))
O=C(Cn1c(=O)c2cccn2c2cccnc21)NCc1cccc(F)c1 [E524-0302] | No (showed no NAMPT inhibition activity at 20 μM (NAMPT activity ≥40%))
Cc1ccccc1CNC(=O)Cn1c(=O)c2cccn2c2cccnc21 [E524-0298] | No (showed no NAMPT inhibition activity at 20 μM (NAMPT activity ≥40%))
O=C(Cn1c(=O)c2cccn2c2cccnc21)NCc1ccccc1F [E524-0299] | No (showed no NAMPT inhibition activity at 20 μM (NAMPT activity ≥40%))

From article PMC4521150, “Discovery of Novel Inhibitors and Fluorescent Probe Targeting NAMPT” (Scientific Reports, 2015)
